In article PMC7714071, “Interaction of amyloid beta with humanin and acetylcholinesterase is modulated by ATP” (FEBS Open Bio, 2020):

Tested on: Aβ from H1299 cell-conditioned media
Assay: ELISA, HN (endogenous and exogenously added) and AChE bound to Aβ from H1299 media on 82E1 antibody
Type: binding, human
Conditions: H1299 media, Fig. 6B
Experimental: Human NSCLC cell lines, A549 (ATCC CCL‐185) and H1299 (ATCC CRL‐5803), were purchased from the American Type Culture Collection (ATCC, Manassas, VA, USA). Cells were seeded as we reported earlier in 5 mL HyClone Dulbecco's modified Eagle's medium/nutrient mixture F‐12 (DMEM/F12) (GE Healthcare Life Sciences, Pittsburgh, PA, USA), supplemented with 10% Fetalgro bovine growth serum (FBS; RMBIO, Missoula, MT, USA), 50 U·mL^−1 penicillin, and […] streptomycin (Invitrogen, Life Technologies, Carlsbad, CA, USA) in 25‐cm^2 tissue culture flasks, and allowed to grow overnight in an incubator at 37 °C, 95% humidity, and 5% CO2. The cells were counted after trypan blue staining, with a hemocytometer.
ELISAs were carried out as we previously reported. Nunc MaxiSorp 96‐well flat bottom plate (Thermo Fisher) wells were coated with samples as indicated. The plates were incubated overnight at 4 °C on a shaker to allow binding of the samples to the plate wells. After the incubation, the wells were washed 4× with TBST, filled with 400 µL blocking buffer (110 mM KCl, 5 mM NaHCO3, 5 mM MgCl2, 1 mM EGTA, 0.1 mM CaCl2, 20 mM HEPES, 1% BSA, pH 7.4), and incubated with shaking overnight at 4 °C. The wells were then washed 4× with TBST, and 100 µL of sample at the desired concentration was added to each well and incubated with shaking overnight at 4 °C. TBST was then used to wash the wells 4× before proceeding in one of two ways: (a) biotinylated samples were analyzed by adding 100 µL streptavidin–HRP conjugate in TBST (1 : 2500 dilution) to the samples followed by incubation for 3 h at RT on a shaker, or (b) samples without biotin were analyzed by adding 100 µL TBST containing the primary antibody as per the manufacturer's recommendation, incubating for 3 h at RT on a shaker, followed by washing the wells 4× with TBST. […] The reaction was stopped with 100 µL 2 M H2SO4 after incubating at RT for 0.5–15 min, resulting in a yellow color change, measured by absorbance at 450 nm. […] Before analysis, the OD from the data was corrected for nonspecific binding by subtracting the mean background absorbance for the negative controls. […] Statistical analysis was determined by the […] […] Data were expressed as the mean ± SD. […]
Anti‐Aβ‐specific antibodies (82E1) were added (1 : 1000 dilution) to ELISA plate wells (Fig. 6). The wells were blocked, and then, 300 µL of the conditioned media (0.5 µg·µL^−1) of A549 or H1299 cells, 72 h postserum starvation, was added in the absence or presence of increasing HN concentrations, and the HN and AChE bound were detected using the corresponding specific primary antibodies. Fold change relative to controls that included all components but without the primary antibodies was calculated and fit with a nonlinear regression curve using the […] […]

Compound	HN concentration at which signal begins to level off (exogenous HN)	binding of exogenous HN to Aβ (increasing exogenous HN, 82E1)	effect of ATP on binding of exogenously added HN to Aβ (0.1 mM, 1 mM ATP (more pronounced at 1 mM))	effect of ATP on binding of endogenous HN to Aβ (increasing ATP (0.1 mM, 1 mM; more pronounced at 1 mM), 82E1)
Humanin [HN]	around 50 nM	increased binding to Aβ	–	–
Nc1ncnc2c1ncn2[C@@H]1O[C@H](COP(=O)(O)OP(=O)(O)OP(=O)(O)O)[C@@H](O)[C@H]1O [ATP, Adenosine triphosphate]	–	–	decreased binding of exogenously added HN	increased binding of endogenous HN
